{"source": "the Deep4Chem optical property database", "experiment": "solvent given as SMILES"}
{"smiles": "O=C([O-])c1cc2c(ccc3ccccc32)oc1=O", "values": [{"measurement": "fluorescence lifetime", "setting": "in O", "value": 12.8, "unit": "ns"}]}
{"smiles": "c1ccc(-c2nc(-c3ccccc3)nc(-c3ccc(-n4c5ccc(-n6c7ccccc7c7ccccc76)cc5c5cc(-n6c7ccccc7c7ccccc76)ccc54)cc3)n2)cc1", "values": [{"measurement": "fluorescence lifetime", "setting": "in Cc1ccccc1", "value": 6, "unit": "ns"}]}
{"smiles": "c1ccc(-c2nn(-c3ccccc3)c3nc4ccc(-n5c6ccccc6c6ccccc65)cc4cc23)cc1", "values": [{"measurement": "fluorescence lifetime", "setting": "in C1CCCCC1", "value": 17.6, "unit": "ns"}, {"measurement": "fluorescence lifetime", "setting": "in C1CCOC1", "value": 19.1, "unit": "ns"}, {"measurement": "fluorescence lifetime", "setting": "in CC#N", "value": 21.8, "unit": "ns"}, {"measurement": "fluorescence lifetime", "setting": "in CC(C)=O", "value": 21.6, "unit": "ns"}, {"measurement": "fluorescence lifetime", "setting": "in CCCCCl", "value": 19.1, "unit": "ns"}, {"measurement": "fluorescence lifetime", "setting": "in CCCCOCCCC", "value": 19.4, "unit": "ns"}, {"measurement": "fluorescence lifetime", "setting": "in CN(C)C=O", "value": 20.2, "unit": "ns"}]}
{"smiles": "CC(=O)Nc1ccc2c(c1)c(=O)c1ccccc1n2CCCCCC(=O)O", "values": [{"measurement": "fluorescence lifetime", "setting": "in O", "value": 17.1, "unit": "ns"}]}
{"smiles": "CCN(CC)c1ccc2c(-c3ccccc3C(=O)O)c3c([o+]c2c1)/C(=C/c1nc(C)n2ccccc12)CCC3", "values": [{"measurement": "fluorescence lifetime", "setting": "in ClCCl", "value": 2.21, "unit": "ns"}]}
{"smiles": "CC(C)(C)c1ccc(-c2nc3c4ccc(-c5ccc6ccccc6c5)cc4c4cc(-c5ccc6ccccc6c5)ccc4c3n2-c2ccc(C(C)(C)C)cc2)cc1", "values": [{"measurement": "fluorescence lifetime", "setting": "in ClCCl", "value": 6.6, "unit": "ns"}]}
{"smiles": "COc1ccc(N(c2ccccc2)c2cc3ccc4cc(N(c5ccccc5)c5ccc(OC)cc5)cc5ccc(c2)c3c45)cc1", "values": [{"measurement": "fluorescence lifetime", "setting": "in Cc1ccccc1", "value": 18, "unit": "ns"}]}
{"smiles": "CCCCCCCCCCCCOc1cc2c3c(ccc4c5c(NC6CCCCC6)cc6c7c(ccc(c1c34)c75)C(=O)N(C1CCCCC1)C6=O)C(=O)N(C1CCCCC1)C2=O", "values": [{"measurement": "fluorescence lifetime", "setting": "in ClC(Cl)Cl", "value": 0.8, "unit": "ns"}]}
{"smiles": "[O-]c1c(-c2nc3ccccc3s2)cc2ccc3cccc4ccc1c2c34", "values": [{"measurement": "fluorescence lifetime", "setting": "in CC#N", "value": 3.81, "unit": "ns"}, {"measurement": "fluorescence lifetime", "setting": "in CS(C)=O", "value": 4.7, "unit": "ns"}]}
{"smiles": "c1ccc(-c2ccnc(-c3ccccc3)n2)cc1", "values": [{"measurement": "fluorescence lifetime", "setting": "in ClC(Cl)Cl", "value": 0.6, "unit": "ns"}]}
{"smiles": "N#CC(C#N)=Cc1ccc2c(c1)c1ccccc1n2-c1cc2ccccc2c2ccccc12", "values": [{"measurement": "fluorescence lifetime", "setting": "in ClCCl", "value": 4.68, "unit": "ns"}]}
{"smiles": "CCCCC(CC)Cn1c2cc(-c3ccc(N(c4ccccc4)c4ccccc4)cc3)c(C#N)cc2c2cc(C#N)c(-c3ccc(N(c4ccccc4)c4ccccc4)cc3)cc21", "note": "(centres undefined)", "values": [{"measurement": "fluorescence lifetime", "setting": "in ClCCl", "value": 3.23, "unit": "ns"}]}
{"smiles": "NS(=O)(=O)c1ccc(N2N=C(c3ccc(O)cc3)CC2c2ccc([N+](=O)[O-])cc2)cc1", "note": "(centres undefined)", "values": [{"measurement": "fluorescence lifetime", "setting": "in C1CCOC1", "value": 2.19, "unit": "ns"}, {"measurement": "fluorescence lifetime", "setting": "in C1COCCO1", "value": 2.06, "unit": "ns"}, {"measurement": "fluorescence lifetime", "setting": "in CC#N", "value": 2.21, "unit": "ns"}, {"measurement": "fluorescence lifetime", "setting": "in CC(C)O", "value": 1.42, "unit": "ns"}, {"measurement": "fluorescence lifetime", "setting": "in CCO", "value": 1.31, "unit": "ns"}, {"measurement": "fluorescence lifetime", "setting": "in CCOC(C)=O", "value": 2.37, "unit": "ns"}, {"measurement": "fluorescence lifetime", "setting": "in CN(C)C=O", "value": 2.51, "unit": "ns"}, {"measurement": "fluorescence lifetime", "setting": "in CO", "value": 1.4, "unit": "ns"}, {"measurement": "fluorescence lifetime", "setting": "in CS(C)=O", "value": 2.43, "unit": "ns"}, {"measurement": "fluorescence lifetime", "setting": "in O", "value": 2.94, "unit": "ns"}]}
{"smiles": "N#Cc1ccc(N)cc1", "values": [{"measurement": "fluorescence lifetime", "setting": "in C1CCCCC1", "value": 5.6, "unit": "ns"}, {"measurement": "fluorescence lifetime", "setting": "in CC#N", "value": 2.6, "unit": "ns"}, {"measurement": "fluorescence lifetime", "setting": "in CCCCCC", "value": 3.2, "unit": "ns"}, {"measurement": "fluorescence lifetime", "setting": "in CCO", "value": 0.68, "unit": "ns"}, {"measurement": "fluorescence lifetime", "setting": "in O", "value": 0.067, "unit": "ns"}, {"measurement": "fluorescence lifetime", "setting": "in OCC(F)(F)F", "value": 0.13, "unit": "ns"}]}
{"smiles": "CC(C)(C)c1ccc2c(c1)c1cc(C(C)(C)C)ccc1n2-c1ccc(C#Cc2ccc3c4ccc(C#Cc5ccc(C=O)cc5)cc4n(-c4ccc(C(F)(F)F)cc4)c3c2)cc1", "values": [{"measurement": "fluorescence lifetime", "setting": "in ClCCl", "value": 0.84, "unit": "ns"}]}
{"smiles": "CN1CCN(CCCN2c3ccccc3Sc3ccc(Cl)cc32)CC1", "values": [{"measurement": "fluorescence lifetime", "setting": "in CC#N", "value": 0.91, "unit": "ns"}, {"measurement": "fluorescence lifetime", "setting": "in CO", "value": 0.89, "unit": "ns"}]}
{"smiles": "COc1ccc(-c2cc3c(s2)c(C(=O)c2ccccc2)cc(=O)n3Cc2ccccc2)cc1", "values": [{"measurement": "fluorescence lifetime", "setting": "in ClCCl", "value": 5.3, "unit": "ns"}]}
{"smiles": "N#Cc1c(-n2c3ccccc3c3ccccc32)c(-n2c3ccccc3c3ccccc32)c(C#N)c(-n2c3ccccc3c3ccccc32)c1-n1c2ccccc2c2ccccc21", "values": [{"measurement": "fluorescence lifetime", "setting": "in Cc1ccccc1", "value": 8.8, "unit": "ns"}]}
{"smiles": "c1ccc([B-]2(c3ccccc3)Oc3ccc4ccccc4c3-c3c4ccccc4cn[n+]32)cc1", "values": [{"measurement": "fluorescence lifetime", "setting": "in Cc1ccccc1", "value": 9.32, "unit": "ns"}]}
{"smiles": "C1=CC2C=c3c(cc4cccc5cc6ccccc6c3c45)C3=c4ccccc4=CC(=C1)C32", "note": "(centres undefined)", "values": [{"measurement": "fluorescence lifetime", "setting": "in ClCCl", "value": 3.16, "unit": "ns"}]}
{"smiles": "O=S(=O)(c1ccc(-c2ccc3c(c2)c2ccccc2n3-c2ccccc2)cc1)c1ccc(-c2ccc3c(c2)c2ccccc2n3-c2ccccc2)cc1", "values": [{"measurement": "fluorescence lifetime", "setting": "in Cc1ccccc1", "value": 1.51, "unit": "ns"}]}
{"smiles": "CCN(CC)c1ccc2c(c1)oc(=O)c1c(-c3ccccc3C(=O)O)c3ccc(=[N+](CC)CC)cc-3oc12", "values": [{"measurement": "fluorescence lifetime", "setting": "in CCO", "value": 2.29, "unit": "ns"}, {"measurement": "fluorescence lifetime", "setting": "in ClC(Cl)Cl", "value": 4.16, "unit": "ns"}, {"measurement": "fluorescence lifetime", "setting": "in O", "value": 0.31, "unit": "ns"}]}
{"smiles": "COc1cc2c(cc1-c1cccs1)Cc1c3c(c4c(c1-2)-c1cc(OC)c(-c2cccs2)cc1C4)C(=O)N(CCC(C)C)C3=O", "values": [{"measurement": "fluorescence lifetime", "setting": "in C1CCOC1", "value": 3.18, "unit": "ns"}]}
{"smiles": "CC1(C)C(/C=C/C2=C(c3ccc(C(=O)O)cc3)C(=C/C=C3/N(CCCCS(=O)(=O)[O-])c4ccccc4C3(C)C)/CC2)=[N+](CCCCS(=O)(=O)[O-])c2ccccc21", "values": [{"measurement": "fluorescence lifetime", "setting": "in CC(C)=O", "value": 1.13, "unit": "ns"}, {"measurement": "fluorescence lifetime", "setting": "in CCO", "value": 0.87, "unit": "ns"}, {"measurement": "fluorescence lifetime", "setting": "in CO", "value": 0.83, "unit": "ns"}, {"measurement": "fluorescence lifetime", "setting": "in CS(C)=O", "value": 1.11, "unit": "ns"}, {"measurement": "fluorescence lifetime", "setting": "in ClC(Cl)Cl", "value": 1.25, "unit": "ns"}, {"measurement": "fluorescence lifetime", "setting": "in ClCCl", "value": 1.17, "unit": "ns"}, {"measurement": "fluorescence lifetime", "setting": "in O", "value": 0.36, "unit": "ns"}]}
{"smiles": "c1ccc(C2=Nc3cccc4[n+]3[B-](c3ccccc3)(N2)NC(c2ccccc2)=N4)cc1", "values": [{"measurement": "fluorescence lifetime", "setting": "in ClCCl", "value": 2.5, "unit": "ns"}]}
{"smiles": "c1coc(-c2nc3ccccc3[nH]2)c1", "values": [{"measurement": "fluorescence lifetime", "setting": "in C1CCOC1", "value": 1.47, "unit": "ns"}, {"measurement": "fluorescence lifetime", "setting": "in CCCCCC", "value": 1.48, "unit": "ns"}, {"measurement": "fluorescence lifetime", "setting": "in CCO", "value": 1.55, "unit": "ns"}, {"measurement": "fluorescence lifetime", "setting": "in CCOCC", "value": 1.53, "unit": "ns"}, {"measurement": "fluorescence lifetime", "setting": "in CO", "value": 1.58, "unit": "ns"}, {"measurement": "fluorescence lifetime", "setting": "in ClC(Cl)Cl", "value": 0.6, "unit": "ns"}, {"measurement": "fluorescence lifetime", "setting": "in ClCCl", "value": 1.26, "unit": "ns"}, {"measurement": "fluorescence lifetime", "setting": "in O", "value": 1.67, "unit": "ns"}]}
{"smiles": "COc1ccc(N(c2ccc(OC)cc2)c2cc3ccc4cc(B(c5c(C)cc(C)cc5C)c5c(C)cc(C)cc5C)cc5ccc(c2)c3c45)cc1", "values": [{"measurement": "fluorescence lifetime", "setting": "in C1CCOC1", "value": 6.1, "unit": "ns"}, {"measurement": "fluorescence lifetime", "setting": "in CC(C)=O", "value": 3.2, "unit": "ns"}, {"measurement": "fluorescence lifetime", "setting": "in CCCCCC", "value": 7.7, "unit": "ns"}, {"measurement": "fluorescence lifetime", "setting": "in Cc1ccccc1", "value": 8.7, "unit": "ns"}, {"measurement": "fluorescence lifetime", "setting": "in ClC(Cl)Cl", "value": 6.5, "unit": "ns"}, {"measurement": "fluorescence lifetime", "setting": "in ClCCl", "value": 6.5, "unit": "ns"}]}
